Results: the NIST ThermoML archive (doi:10.1016/j.jct.2013.08.013)
± gives the expanded uncertainty stated by the source.

Assay: xn = mol fraction of the nth substance listed
Details: 101 kPa, Liquid; for speed of sound: Frequency=2 MHz, Linear variable-path acoustic interferometer; for mass density: Vibrating tube method

Cc1ccccc1Cl [2-chlorotoluene] + CCCCCO
Details	mass density, 298.15 K [kg/m3]	mass density, 303.15 K [kg/m3]	mass density, 308.15 K [kg/m3]	speed of sound, 298.15 K [m/s]	speed of sound, 303.15 K [m/s]	speed of sound, 308.15 K [m/s]
x1 = 0.0964	838.77 ± 0.23	834.85 ± 0.23	830.94 ± 0.23	1280.2 ± 2	1263 ± 2	1250 ± 2
x1 = 0.189	865.02 ± 0.22	860.96 ± 0.22	856.9 ± 0.22	1282.2 ± 2	1264 ± 2	1250.2 ± 2
x1 = 0.294	894.17 ± 0.21	889.95 ± 0.21	885.73 ± 0.21	1281.9 ± 2	1262.5 ± 2	1247.7 ± 2
x1 = 0.388	919.71 ± 0.2	915.37 ± 0.2	911.06 ± 0.2	1280.9 ± 2	1260.7 ± 2	1244.5 ± 1.9
x1 = 0.4962	948.58 ± 0.18	944.07 ± 0.18	939.74 ± 0.18	1279 ± 2	1258.1 ± 1.9	1240.9 ± 1.9
x1 = 0.5892	972.97 ± 0.17	968.37 ± 0.17	963.98 ± 0.17	1277.5 ± 2	1255.8 ± 1.9	1238.3 ± 1.9
x1 = 0.697	1000.83 ± 0.16	996.18 ± 0.16	991.75 ± 0.16	1278 ± 1.9	1256.1 ± 1.9	1238 ± 1.9
x1 = 0.8057	1028.54 ± 0.16	1023.88 ± 0.16	1019.37 ± 0.16	1281 ± 1.9	1260.1 ± 1.9	1242.2 ± 1.9
x1 = 0.8949	1051.02 ± 0.16	1046.43 ± 0.16	1041.83 ± 0.16	1287 ± 1.9	1267.2 ± 1.9	1250 ± 1.9
x1 = 1	1077.38 ± 0.15	1072.8 ± 0.15	1068.21 ± 0.15	1299.8 ± 1.9	1283.6 ± 1.9	1265.6 ± 1.9
